# Article doi:10.1101/2025.09.12.675753, “In search of nonlipogenic ABCA1 inducers (NLAI): precision coregulator TR-FRET identifies diverse signatures for LXR ligands” (bioRxiv, 2025)
# “Also recorded” adds a separate entry of the source.
# Columns and labels:
# [1] = test system: ABCA1-promoter luciferase in CCF-STTG1 cells; experiment: ABCA1-luc reporter in CCF-STTG1 astrocytoma cells; type: cell-based, human
# Excerpt: Astrocytoma CCF-STTG1 cells, stably transfected with an ABCA1-promoter linked to a luciferase response element provide a model for ABCA1 induction in astrocytes.[81] […] Apparent inverse agonist activity in cell-based assays can result from true inverse agonist recruitment of corepressors or from antagonist activity towards endogenous sterol LXR agonists. Although we use serum stripped media, antagonism of endogenous LXR agonists cannot be ruled out.
# Low passage CCF-STTG1 cells (20,000 cells/well) were seeded in 96-well plates in media containing charcoal-stripped FBS and incubated at 37 °C and 5% CO2 for 24 hours prior to a 24-hour treatment. All compounds were dissolved in DMSO, and final DMSO concentrations never exceeded 1%. After a 24-hour incubation period, add a volume of ONE-GLO™EX Reagent that is equal to the volume of culture medium in each well and incubate for 3 to 5 minutes on the shaker. The luminescent activity of compounds ([…], 10-fold dilution) was examined using the ONE-GLO™EX assay (Promega). The data was normalized to DMSO. The assays were performed in duplicates for each concentration, and the EC50 values were determined from non-linear regression analysis of the dose-response curve generated in GraphPad Prism 9.
# [2] = test system: SRE promoter luciferase (SRE-luc) in HepG2 cells; experiment: SRE-luc reporter in HepG2 cells; type: cell-based, human; settings: for SRE-luc response: HepG2, normalized to T0
# Excerpt: Our phenotypic high throughput screen (HTS) approach to identify nonlipogenic ABCA1 Inducers (NLAI) originally used counterscreening with a SREBP1c-luciferase reporter (linked to the SREBF1 gene promoter) in human hepatocarcinoma HepG2 cells.[81] Unwanted lipogenesis is mediated by LXR agonists via direct transcriptional activation and indirectly by the effects of SREBP1c.[57] [109] SREBP1c enhances transcription of genes required for synthesis of fatty acids and TG and as the dominant isoform in liver is associated most closely with lipogenesis and TG elevation.[109] […] Binding of SREBP1c to the sterol response element (SRE) induces transcription of lipogenic genes associated with elevated TG. To better model the lipogenic axis in hepatocytes, we use HepG2 cells stably transfected with a luciferase reporter downstream of a SRE promoter (SRE-luc), activation of which requires SREBP1c maturation.
# HepG2 cells were cotransfected with SRE (LDLR)-NlucP SuperPiggyBac Transposon and a separate Transposase plasmid (System Biosciences). Cells were expanded for multiple passages followed by selection with puromycin (1ug/ml). Stable cells constitutively express GFP allowed for FACS enrichment and/or cell cloning. Initially, stable pools were compared to low expressing and high expressing enriched pools. The optimal pool was selected based on assay performance (Z’) and was grown and maintained as above, with the addition of 1.0 μg/mL of puromycin biweekly.
# [3] = test system: SREBF1, FAS, and SCD1 in HepG2 cells; experiment: RT-PCR of lipogenic genes in HepG2 cells; type: cell-based, human; settings: HepG2, 24 hours
# Experimental: Owing to the anomalous response in the reporter assay, we measured lipogenic genes, SREBF1, FAS, and SCD1 by RT-PCR in HepG2 cells in response to treatment with the biphenyl sulfones (Figs 5G–I).
# HepG2 cells were seeded in 12-well plates and treated with compounds for 24 hours. Following treatment, cells were washed once with PBS and then lysed in 350 μL of RLT buffer (Qiagen). Lysates were immediately frozen at −80 °C until RNA extraction. Total RNA was extracted using RNeasy Plus Mini columns (Qiagen) according to the manufacturer’s instructions. RNA concentration and purity were assessed using the A260/A280 ratio measured on a Synergy Neo2 plate reader (BioTek). For cDNA synthesis, 2 μg of total RNA was reverse transcribed using SuperScript III reverse transcriptase (Invitrogen), oligo(dT)12–18 primers, and dNTP mix, following the manufacturer’s protocol. Quantitative PCR was performed using TaqMan Gene Expression Master Mix (Invitrogen) with 2 μL of cDNA and gene-specific TaqMan probes in a 20 μL reaction volume per well. The following TaqMan assays were used: ABCA1: Hs01059101_m1, SREBF1: Hs01088691_m1, SCD: Hs01682761_m1, FASN: Hs01005622_m1, and HPRT1 (endogenous control): Hs02800695_m1. qPCR was performed on a StepOne Real-Time PCR System (Applied Biosystems), and gene expression was quantified using the ΔΔCt method.
# LXR = experiment: CRT signature categorization, heat map of response at 1 μM; type: biochemical; settings: signatures of Table 1
# Excerpt: With the knowledge that corepressors bind to the apo-receptor; whereas coactivator binding requires a ligand-induced conformational change, we can categorize all ligands using their CRT profiles: ligands induce 3 conformations with CoR (destabilizing D, stabilizing S, neutral N) and only 2 conformations with CoA (stabilizing S, neutral N) (Table 1).
# To determine which LXR ligands fit with these theoretical CRT signatures, concentration-response curves were interpolated to measure normalized response at 1 μM ligand concentration and plotted as a heat map (Figs 9A, S8).
# The CRT signatures of the three agonist and three antagonist classifications were modelled in the same heat map using signatures defined in Table 1 and the measured responses to the real LXR ligands in our study.
# LXRβ [4] = target: T1, LXRβ (Homo sapiens, UniProt P55055)
# T1 sequence (P55055 222-460 limits assumed): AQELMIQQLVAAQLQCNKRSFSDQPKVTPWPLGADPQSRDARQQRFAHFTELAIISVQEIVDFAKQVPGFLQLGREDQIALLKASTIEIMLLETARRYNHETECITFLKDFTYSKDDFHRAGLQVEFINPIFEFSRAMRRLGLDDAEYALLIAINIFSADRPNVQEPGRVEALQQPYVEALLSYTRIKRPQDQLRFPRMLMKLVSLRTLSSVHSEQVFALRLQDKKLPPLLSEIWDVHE
# obese mice on HFD = settings: cited from earlier work
# [5] = test system: mouse model of non-alcoholic steatohepatitis (NASH); settings: cited from earlier work
# [6] = cited from earlier work
# LXRα [7] = target: T2, LXRα (Homo sapiens, UniProt Q13133); experiment: Corepressor (NCOR2, SMRT2) binding CRT, LXRα; settings: absence of coactivator
# T2 sequence (Q13133 209-447 limits assumed): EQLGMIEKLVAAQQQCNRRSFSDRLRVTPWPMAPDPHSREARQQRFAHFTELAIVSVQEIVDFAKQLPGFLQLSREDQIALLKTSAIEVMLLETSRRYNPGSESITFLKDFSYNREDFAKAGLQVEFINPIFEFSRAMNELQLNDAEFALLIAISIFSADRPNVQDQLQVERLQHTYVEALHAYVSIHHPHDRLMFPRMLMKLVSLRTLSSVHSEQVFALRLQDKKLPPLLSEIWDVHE
# LXRβ [8] = target: T1, LXRβ; experiment: Corepressor (NCOR2, SMRT2) binding CRT, LXRβ; settings: absence of coactivator
# LXRα [9] = target: T2, LXRα; settings: for SRC-1 recruitment to LXRα, efficacy relative to T0: ligand alone, normalized to T0 (100%)
# [10] = test system: ABCA1, SREBP1c, cholesterol efflux, IL-6 in cell cultures; settings: cited from earlier work
# [11] = test system: high-fat diet (HFD) mouse model; settings: cited from earlier work
# LXRα [12] = target: T2, LXRα
# hamsters = test system: hamsters; design: method as in PMID 19318684; settings: cited from earlier work
# primates = test system: primates; design: method as in PMID 19318684; settings: 50 mg/kg/day p.o., returned to baseline at day 7; cited from earlier work
# participants = test system: participants; design: method as in PMID 19398602; settings: 300 mg dose; cited from earlier work
# mice = settings: highest dose 30 mg/kg qd; cited from earlier work
# LXRβ [13] = target: T1, LXRβ; experiment: Multiplex precision CRT (pCRT), SRC1 and NCoR2, LXRβ; type: biochemical; design: NR-LBD with short coregulator peptides as used in the present work; purchased Thermo Fisher Scientific PV4660; settings: SRC1-btn 200 nM, NCoR2-FL 200 nM
# E3/4FAD mice = settings: cited from earlier work
structure (smiles),measurement,setting,value
CCOC(=O)c1ccc(CN(Cc2ccc(-c3cccc(S(C)(=O)=O)c3)cc2)S(=O)(=O)c2c(C)cc(C)cc2C)o1 [SR9238],ABCA1-luc response,"[1]; 24 hr incubation, normalized to T0 (100%)",inverse agonist activity in cells
same,SRE-luc response,[2],anomalous activation of SRE at concentrations above 1 μM; also recorded: lowered SRE activation below baseline; also recorded: neutral or antagonist response; also recorded: inverse agonist at < 3 μM concentration
same,"Lipogenic gene transcription (SREBF1, FAS, SCD1) by RT-PCR",[3],reducing lipogenic gene transcription below baseline
same,CRT signature category,LXR,IA (inverse agonist (IA))
same,Effect on 24HC agonism at LXRβ,LXRβ [4]; in the presence of 24HC (3 μM),antagonized the agonism of 24HC at LXRβ
same,"SRC-1 recruitment to LXRβ, efficacy/potency relative to T0","LXRβ [4]; ligand alone, normalized to T0 (100%)",neither ligand stabilized the LXR:SRC1 complex alone
same,Plasma TG,obese mice on HFD,plasma TG was suppressed
same,Hepatic inflammation and fibrosis,[5],significantly reduced hepatic inflammation and fibrosis
same,Metabolic lability / systemic availability,[6],metabolically labile
same,"Corepressor (NCOR2 and SMRT2) binding to LXRα, ligand effect",LXRα [7],strong agonist responses
same,"Corepressor (NCOR2 and SMRT2) binding to LXRβ, ligand effect",LXRβ [8],strong agonist responses
same,Effect on 24HC agonism at LXRα,LXRα [9]; in the presence of 24HC (3 μM),without effect on LXRα
same,"SRC-1 recruitment to LXRα, efficacy relative to T0",LXRα [9],neither ligand stabilized the LXR:SRC1 complex alone
COc1ccc(NC2=C(c3ccccc3)C(=O)N(Cc3ccccc3)C2=O)cc1 [GSK3987],Emax,"[2]; Homo sapiens, HepG2, read-out: Maximal efficacy (Emax), SRE activation",150%
same,CRT signature category,LXR,FA (full agonist (FA))
same,"LXR isoform selectivity, SRC-1 recruitment",LXRβ [4]; LXRβ versus LXRα,weakly selective for LXRβ
same,"ABCA1, SREBP1c, cholesterol efflux and IL-6 in cell cultures",[10],"concentration-dependent increases in ABCA1, SREBP1c, and cholesterol efflux and concentration-dependent decreases in IL-6"
same,"Corepressor (NCOR2 and SMRT2) binding to LXRα, ligand effect",LXRα [7],strong agonist responses
same,"Corepressor (NCOR2 and SMRT2) binding to LXRβ, ligand effect",LXRβ [8],strong agonist responses
CCOC(=O)c1cccc(NC(=O)c2sc(Cl)cc2S(=O)(=O)N(C)c2ccc(OCC)c(OCC)c2)c1 [CL2–57],EC50,"[2]; Homo sapiens, HepG2 SRE-luc, read-out: EC50, SRE activation",2800 nM
same,Plasma and hepatic TG levels,[11],attenuated diet-induced increases in plasma and hepatic TG levels
same,Recruitment of coactivator TRAP220 to LXRα,LXRα [12],very minimal recruitment
Fc1ccc(-c2c3cccc(C(F)(F)F)c3nn2Cc2ccc(F)cc2Cl)cc1 [LXR-623],Plasma TG,hamsters,did not cause a dose-dependent increase in plasma TG
same,Liver TG,primates,significant increase in liver TG was observed but only at high dose
same,Adverse effects,participants,all 6 participants on the highest 300 mg dose reported neurologic or psychiatric adverse effects
CC(C)(O)c1cn(-c2ccc(-c3cccc(S(C)(=O)=O)c3)cc2)c(C(C)(C)c2ccccc2Cl)n1 [XL652],Weaker potency for ABCA1 induction compared to XL041,[1]; versus XL041,more than 100 fold
same,SRE-luc response,[2],anomalous activation of SRE at concentrations above 1 μM; also recorded: little or no activation of SRE at submicromolar concentrations
same,Efficacy of SRE activation,[2]; concentrations ≤ 1 μM,20–25 % of T0
same,Plasma triglycerides,mice,elevated plasma triglycerides only at the highest dose
same,"Corepressor (NCOR2 and SMRT2) binding to LXRα, ligand effect",LXRα [7],strongly stabilized the corepressor-bound conformation
same,"SMRT2 binding to LXRα, ligand effect",LXRα [7],stabilization of SMRT2 corepressor binding to LXRα
same,"NCOR2 binding to LXRβ, ligand effect",LXRβ [8],weakly destabilized the NCOR2 complex with both LXR isoforms
same,"SMRT2 binding to LXRβ, ligand effect",LXRβ [8],did not perturb SMRT2 binding to LXRβ
same,Recruitment of coactivator TRAP220 to LXRα,LXRα [12],very minimal recruitment
same,NCOR2 displacement from LXRβ in the presence of SRC1 (pCRT),LXRβ [13],fully displaced
CCOC(=O)c1cc(Cl)cc(NC(=O)c2sc(Cl)cc2S(=O)(=O)N(C)c2ccc(OCC)c(OC)c2)c1 [CL3–3],"ABCA1 expression, APOE lipidation, AD phenotypes, TG",E3/4FAD mice,"increased ABCA1 expression, enhanced APOE lipidation and reversed multiple AD phenotypes, without increasing TG"
same,"SRC-1 recruitment to LXRα, efficacy relative to T0",LXRα [9],partial agonist activity at LXRα
same,Recruitment of coactivator TRAP220 to LXRα,LXRα [12],very minimal recruitment
